From ChEMBL document CHEMBL1132087, “New N-substituted 7-aminocephalosporanic acid derivatives as potential agents against Streptococcus pneumoniae. Synthesis and in vitro activity” (1999)
Values after ≈ are worked out from the molar mass of the structure shown.

Legend:
Format in all cases: functional
Staphylococcus aureus [1] = test: In vitro antibacterial activity against the gram-positive bacteria, penicillin resistant Staphylococcus aureus (2619)
Staphylococcus aureus [2] = test: In vitro antibacterial activity against the gram-positive bacteria, penicillin sensitive Staphylococcus aureus (3849)
Streptococcus pneumoniae [3] = test: In vitro antibacterial activity against the gram-positive bacteria, penicillin resistant Streptococcus pneumoniae (4630)
Streptococcus pneumoniae [4] = test: In vitro antibacterial activity against the gram-positive bacteria, penicillin sensitive Streptococcus pneumoniae (3273)
Staphylococcus aureus [5] = test: In vitro antibacterial activity against the gram-positive bacteria, penicillin sensitive Staphylococcus aureus (663E)
Streptococcus pneumoniae [6] = test: In vitro antibacterial activity against the gram-positive bacteria, penicillin sensitive Streptococcus pneumoniae (3512)
Streptococcus pneumoniae [7] = test: In vitro antibacterial activity against the gram-positive bacteria, penicillin resistant Streptococcus pneumoniae (4636)
Staphylococcus aureus [8] = test: In vitro antibacterial activity against the gram-positive bacteria, penicillin resistant Staphylococcus aureus (853)
Streptococcus pneumoniae [9] = test: In vitro antibacterial activity against the gram-positive bacteria, penicillin resistant Streptococcus pneumoniae (4629)
Streptococcus pneumoniae [10] = test: In vitro antibacterial activity against the gram-positive bacteria, penicillin sensitive Streptococcus pneumoniae (3272)
Staphylococcus aureus [11] = test: In vitro antibacterial activity against the gram-positive bacteria, penicillin resistant Staphylococcus aureus (2672)
Staphylococcus aureus [12] = test: In vitro antibacterial activity against the gram-positive bacteria, penicillin sensitive Staphylococcus aureus (3072)
Streptococcus pneumoniae [13] = test: In vitro antibacterial activity against the gram-positive bacteria, penicillin resistant Streptococcus pneumoniae (4635)
Streptococcus pyogenes = test: In vitro antibacterial activity against the gram-positive bacteria, erythromycin resistant Streptococcus pyogenes

| Structure (SMILES) | MIC (Staphylococcus aureus [1]) [µg/mL] | MIC (Staphylococcus aureus [2]) [µg/mL] | MIC (Streptococcus pneumoniae [3]) [µg/mL] | MIC (Streptococcus pneumoniae [4]) [µg/mL] | MIC (Staphylococcus aureus [5]) [µg/mL] | MIC (Streptococcus pneumoniae [6]) [µg/mL] | MIC (Streptococcus pneumoniae [7]) [µg/mL] | MIC (Staphylococcus aureus [8]) [µg/mL] | MIC (Streptococcus pneumoniae [9]) [µg/mL] | MIC (Streptococcus pneumoniae [10]) [µg/mL] | MIC (Staphylococcus aureus [11]) [µg/mL] | MIC (Staphylococcus aureus [12]) [µg/mL] | MIC (Streptococcus pneumoniae [13]) [µg/mL] | MIC (Streptococcus pyogenes) [µg/mL] |
| --- | --- | --- | --- | --- | --- | --- | --- | --- | --- | --- | --- | --- | --- | --- |
| CC1(C)S[C@@H]2[C@H](NC(=O)Cc3ccccc3)C(=O)N2[C@H]1C(=O)O [PENICILLIN G] | 64 (≈ 191 µM) | < 0.5 | 4 (≈ 12 µM) | 0.5 (≈ 1.5 µM) | < 0.5 | < 0.5 | 8 (≈ 23.9 µM) | 64 (≈ 191 µM) | 4 (≈ 12 µM) | < 0.5 | 64 (≈ 191 µM) | < 0.5 | 8 (≈ 23.9 µM) | – |
| CC(=O)OCC1=C(C(=O)O)N2C(=O)[C@@H](NC(=O)CN(OCc3cccc(Cl)c3)C(=O)NCc3ccccc3)C2SC1 (stereo partly specified) | 2 (≈ 3.32 µM) | 0.5 (≈ 0.829 µM) | 8 (≈ 13.3 µM) | 0.5 (≈ 0.829 µM) | 1 (≈ 1.66 µM) | 0.25 (≈ 0.415 µM) | 32 (≈ 53.1 µM) | 1 (≈ 1.66 µM) | 8 (≈ 13.3 µM) | 0.25 (≈ 0.415 µM) | 2 (≈ 3.32 µM) | 1 (≈ 1.66 µM) | 4 (≈ 6.63 µM) | 0.25 (≈ 0.415 µM) |
| CC(=O)OCC1=C(C(=O)O)N2C(=O)[C@@H](NC(=O)CN(OCc3ccccc3Cl)C(=O)Nc3ccccc3)C2SC1 (stereo partly specified) | 1 (≈ 1.7 µM) | 0.5 (≈ 0.849 µM) | 8 (≈ 13.6 µM) | 0.25 (≈ 0.424 µM) | 0.5 (≈ 0.849 µM) | 0.12 (≈ 0.204 µM) | 8 (≈ 13.6 µM) | 2 (≈ 3.4 µM) | 8 (≈ 13.6 µM) | 0.25 (≈ 0.424 µM) | 2 (≈ 3.4 µM) | 0.5 (≈ 0.849 µM) | 4 (≈ 6.79 µM) | 0.12 (≈ 0.204 µM) |
| CC1(C)S[C@@H]2[C@H](NC(=O)[C@H](N)c3ccc(O)cc3)C(=O)N2[C@H]1C(=O)O.O=C(O)[C@H]1/C(=C/CO)O[C@@H]2CC(=O)N21 | 2 | 0.25 | 2 | < 0.015 | 0.25 | < 0.015 | 4 | 2 | 4 | < 0.015 | 1 | 0.5 | 4 | 0.06 |
| CO/N=C(\C(=O)N[C@@H]1C(=O)N2C(C(=O)O)=C(CSc3nc(=O)c(O)nn3C)CS[C@H]12)c1csc(N)n1 [CEFTRIAXONE] | 4 (≈ 7.21 µM) | 2 (≈ 3.61 µM) | 2 (≈ 3.61 µM) | 0.03 (≈ 0.0541 µM) | 2 (≈ 3.61 µM) | 0.03 (≈ 0.0541 µM) | 1 (≈ 1.8 µM) | 4 (≈ 7.21 µM) | 4 (≈ 7.21 µM) | 0.03 (≈ 0.0541 µM) | 4 (≈ 7.21 µM) | 4 (≈ 7.21 µM) | 1 (≈ 1.8 µM) | 0.06 (≈ 0.108 µM) |
| CC(=O)OCC1=C(C(=O)O)N2C(=O)[C@@H](NC(=O)CN(OCc3cccc(Cl)c3)C(=O)c3ccccc3)C2SC1 (stereo partly specified) | 1 (≈ 1.74 µM) | 0.5 (≈ 0.871 µM) | 8 (≈ 13.9 µM) | 0.12 (≈ 0.209 µM) | 0.5 (≈ 0.871 µM) | 0.06 (≈ 0.105 µM) | 2 (≈ 3.48 µM) | 0.5 (≈ 0.871 µM) | 8 (≈ 13.9 µM) | 0.06 (≈ 0.105 µM) | 4 (≈ 6.97 µM) | 0.5 (≈ 0.871 µM) | 1 (≈ 1.74 µM) | 0.25 (≈ 0.436 µM) |
| CC(=O)OCC1=C(C(=O)O)N2C(=O)[C@@H](NC(=O)CN(OCc3cccc(Cl)c3)C(=O)Nc3ccccc3)C2SC1 (stereo partly specified) | 1 (≈ 1.7 µM) | 0.5 (≈ 0.849 µM) | 4 (≈ 6.79 µM) | 0.12 (≈ 0.204 µM) | 0.5 (≈ 0.849 µM) | 0.12 (≈ 0.204 µM) | 4 (≈ 6.79 µM) | 1 (≈ 1.7 µM) | 4 (≈ 6.79 µM) | 0.06 (≈ 0.102 µM) | 2 (≈ 3.4 µM) | 0.5 (≈ 0.849 µM) | 2 (≈ 3.4 µM) | 0.12 (≈ 0.204 µM) |
| CC(=O)OCC1=C(C(=O)O)N2C(=O)[C@@H](NC(=O)CN(OCc3ccccc3)C(=O)Nc3ccccc3)C2SC1 (stereo partly specified) | 2 (≈ 3.61 µM) | 0.5 (≈ 0.902 µM) | 8 (≈ 14.4 µM) | 0.25 (≈ 0.451 µM) | 0.5 (≈ 0.902 µM) | 0.25 (≈ 0.451 µM) | 16 (≈ 28.9 µM) | 1 (≈ 1.8 µM) | 8 (≈ 14.4 µM) | 0.12 (≈ 0.216 µM) | 4 (≈ 7.21 µM) | 1 (≈ 1.8 µM) | 8 (≈ 14.4 µM) | 0.12 (≈ 0.216 µM) |
| N[C@@H](C(=O)N[C@@H]1C(=O)N2C(C(=O)O)=C(Cl)CS[C@H]12)c1ccccc1 [CEFACLOR ANHYDROUS] | 16 (≈ 43.5 µM) | 1 (≈ 2.72 µM) | 16 (≈ 43.5 µM) | 0.5 (≈ 1.36 µM) | 1 (≈ 2.72 µM) | 1 (≈ 2.72 µM) | 16 (≈ 43.5 µM) | 64 (≈ 174 µM) | 32 (≈ 87 µM) | 1 (≈ 2.72 µM) | 64 (≈ 174 µM) | 4 (≈ 10.9 µM) | 16 (≈ 43.5 µM) | 0.5 (≈ 1.36 µM) |
| CO/N=C(\C(=O)N[C@@H]1C(=O)N2C(C(=O)O)=C(COC(N)=O)CS[C@H]12)c1ccco1 [CEFUROXIME] | 2 (≈ 4.71 µM) | 1 (≈ 2.36 µM) | 16 (≈ 37.7 µM) | 0.25 (≈ 0.589 µM) | 1 (≈ 2.36 µM) | 0.06 (≈ 0.141 µM) | 16 (≈ 37.7 µM) | 2 (≈ 4.71 µM) | 32 (≈ 75.4 µM) | 0.06 (≈ 0.141 µM) | 2 (≈ 4.71 µM) | 2 (≈ 4.71 µM) | 32 (≈ 75.4 µM) | 0.06 (≈ 0.141 µM) |
| CC(=O)OCC1=C(C(=O)O)N2C(=O)[C@@H](NC(=O)CN(OCc3ccc(Cl)cc3)C(=O)Nc3ccccc3)C2SC1 (stereo partly specified) | 1 (≈ 1.7 µM) | 0.5 (≈ 0.849 µM) | 4 (≈ 6.79 µM) | 0.25 (≈ 0.424 µM) | 0.5 (≈ 0.849 µM) | 0.06 (≈ 0.102 µM) | 16 (≈ 27.2 µM) | 1 (≈ 1.7 µM) | 8 (≈ 13.6 µM) | 0.12 (≈ 0.204 µM) | 4 (≈ 6.79 µM) | 0.5 (≈ 0.849 µM) | 4 (≈ 6.79 µM) | 0.06 (≈ 0.102 µM) |
| CC(=O)OCC1=C(C(=O)O)N2C(=O)[C@@H](NC(=O)CN(OCc3ccccc3)C(=O)NCc3ccccc3)C2SC1 (stereo partly specified) | 1 (≈ 1.76 µM) | 1 (≈ 1.76 µM) | 16 (≈ 28.1 µM) | 0.5 (≈ 0.879 µM) | 0.5 (≈ 0.879 µM) | 0.25 (≈ 0.44 µM) | 32 (≈ 56.3 µM) | 1 (≈ 1.76 µM) | 16 (≈ 28.1 µM) | 0.12 (≈ 0.211 µM) | 2 (≈ 3.52 µM) | 1 (≈ 1.76 µM) | 4 (≈ 7.03 µM) | 0.25 (≈ 0.44 µM) |
| CC(=O)OCC1=C(C(=O)O)N2C(=O)[C@@H](NC(=O)CN(OCc3ccc(Cl)cc3)C(=O)c3ccccc3)C2SC1 (stereo partly specified) | 2 (≈ 3.48 µM) | 1 (≈ 1.74 µM) | 8 (≈ 13.9 µM) | 0.12 (≈ 0.209 µM) | 0.5 (≈ 0.871 µM) | 0.12 (≈ 0.209 µM) | 16 (≈ 27.9 µM) | 2 (≈ 3.48 µM) | 8 (≈ 13.9 µM) | 0.12 (≈ 0.209 µM) | 8 (≈ 13.9 µM) | 0.5 (≈ 0.871 µM) | 8 (≈ 13.9 µM) | 0.12 (≈ 0.209 µM) |
| CC(=O)OCC1=C(C(=O)O)N2C(=O)[C@@H](NC(=O)CN(OCc3ccccc3Cl)C(=O)c3ccccc3)C2SC1 (stereo partly specified) | 4 (≈ 6.97 µM) | 0.5 (≈ 0.871 µM) | 16 (≈ 27.9 µM) | 0.25 (≈ 0.436 µM) | 1 (≈ 1.74 µM) | 0.25 (≈ 0.436 µM) | 32 (≈ 55.7 µM) | 1 (≈ 1.74 µM) | 16 (≈ 27.9 µM) | 0.25 (≈ 0.436 µM) | 8 (≈ 13.9 µM) | 1 (≈ 1.74 µM) | 16 (≈ 27.9 µM) | 0.5 (≈ 0.871 µM) |
| CO/N=C(\C(=O)N[C@@H]1C(=O)N2C(C(=O)[O-])=C(C[n+]3cccc4c3CCC4)CS[C@H]12)c1csc(N)n1 [CEFPIROME] | 2 (≈ 3.89 µM) | 1 (≈ 1.94 µM) | 1 (≈ 1.94 µM) | 0.06 (≈ 0.117 µM) | 1 (≈ 1.94 µM) | 0.06 (≈ 0.117 µM) | < 0.5 | 2 (≈ 3.89 µM) | 2 (≈ 3.89 µM) | 0.06 (≈ 0.117 µM) | 2 (≈ 3.89 µM) | 1 (≈ 1.94 µM) | < 0.5 | 0.03 (≈ 0.0583 µM) |
| CC(=O)OCC1=C(C(=O)O)N2C(=O)[C@@H](NC(=O)CN(OCc3ccccc3)C(=O)c3ccccc3)C2SC1 (stereo partly specified) | 2 (≈ 3.71 µM) | 0.5 (≈ 0.927 µM) | 8 (≈ 14.8 µM) | 0.06 (≈ 0.111 µM) | 0.5 (≈ 0.927 µM) | 0.03 (≈ 0.0556 µM) | 16 (≈ 29.7 µM) | 1 (≈ 1.85 µM) | 8 (≈ 14.8 µM) | 0.06 (≈ 0.111 µM) | 8 (≈ 14.8 µM) | 1 (≈ 1.85 µM) | 8 (≈ 14.8 µM) | 0.25 (≈ 0.463 µM) |
| CC(=O)OCC1=C(C(=O)O)N2C(=O)[C@@H](NC(=O)CN(OCc3ccc(Cl)cc3)C(=O)NCc3ccccc3)C2SC1 (stereo partly specified) | 1 (≈ 1.66 µM) | 0.5 (≈ 0.829 µM) | 8 (≈ 13.3 µM) | 0.5 (≈ 0.829 µM) | 0.5 (≈ 0.829 µM) | 0.25 (≈ 0.415 µM) | 32 (≈ 53.1 µM) | 1 (≈ 1.66 µM) | 8 (≈ 13.3 µM) | 0.25 (≈ 0.415 µM) | 2 (≈ 3.32 µM) | 1 (≈ 1.66 µM) | 4 (≈ 6.63 µM) | 0.12 (≈ 0.199 µM) |
| CC(=O)OCC1=C(C(=O)O)N2C(=O)[C@@H](NC(=O)CN(OCc3ccccc3Cl)C(=O)NCc3ccccc3)C2SC1 (stereo partly specified) | 1 (≈ 1.66 µM) | 0.5 (≈ 0.829 µM) | 16 (≈ 26.5 µM) | 0.5 (≈ 0.829 µM) | 0.5 (≈ 0.829 µM) | 0.25 (≈ 0.415 µM) | 64 (≈ 106 µM) | 1 (≈ 1.66 µM) | 16 (≈ 26.5 µM) | 0.5 (≈ 0.829 µM) | 4 (≈ 6.63 µM) | 1 (≈ 1.66 µM) | 4 (≈ 6.63 µM) | 0.25 (≈ 0.415 µM) |
